One series has as its system grip strength. The experiment in a line: Promotion of kaatsu training effect, grip strength. The format is in vivo, human. On the procedure: Two subjects participated in the experiment. The experiment was carried out according to Abe T. et al. (2006) Electromyographic responses of arm and chest muscle during bench press exercise with and without KAATSU. Int. J. Kaatsu Training Res. 2:15-18. The grip strengths of both hands of each subject were measured before the experiment was started. Next, the absorption aid 4 of carbon dioxide described in Example 5 in Patent Document 7 (Japanese Patent Unexamined Publication No. 2004-517345) was applied to the entire left arm of each subject, and the left arm was covered with an 80 cm-long polypropylene bag type sealing enclosure member equipped with a check valve. A cuff of blood pressure manometer was worn on the upper arm with the sealing enclosure member applied. Firstly, the upper arm was pressurized with a cuff pressure of 50 mmHg for 30 seconds. Next, the pressure was released once for 10 seconds, and then the upper arm was pressurized while gradually increasing the cuff pressure to 70 mmHg. When the cuff pressure reached 70 mmHg, the pressure was fixed. Then, carbon dioxide was filled in the sealing enclosure member from a carbon dioxide gas cylinder so as to inflate the sealing enclosure member. […]
Three days after the experiment, the grip strength of both hands of each subject was measured.

Series [1] concerns muscle strength of the quadriceps femoris and the hamstrings. The experiment in a line: Promotion of muscle strengthening by stretching exercise on isometric torque of legs, transdermal carbon dioxide absorption on treated leg. The format is in vivo, human. The text has this:
Eight subjects including two subjects who played sports three times or more a week (hereinafter, referred to as “athlete”) and six subjects who played sports two times or less a week (hereinafter, referred to as “non-athlete”) participated in the experiment. Each subject did warming-up by pedaling a gym bicycle for ten minutes. Next, each subject did a stretching exercise on isometric torque of the quadriceps femoris 300 times or more by using training machine MyoretRZ-450 (Kawasaki Heavy Industries, Ltd.). Thus, an exercise load was applied to the quadriceps femoris. Then, the muscle strength of the quadriceps femoris and the muscle strength of the hamstrings to which an exercise load was not applied were measured by using MyoretRZ-450.
After the training was completed, the carbon dioxide absorption aid 4 described in Example 5 in Patent Document 7 (Japanese Patent Unexamined Publication No. 2004-517345) was applied to one determined leg (hereinafter, referred to as a “treated leg”). The treated leg was covered with an 80 cm-long polypropylene bag type sealing enclosure member equipped with a check valve. Then, the member was filled with carbon dioxide from a carbon dioxide gas cylinder and stood still for ten minutes. The carbon dioxide concentration was set to 80% (800,000 ppm). No treatment was given to the other leg (hereinafter, referred to as a “non-treated leg”). The training was carried out only once, this time.
Each subject allowed the treated leg to absorb carbon dioxide for ten minutes once a day as mentioned above by using the carbon dioxide supplying means for muscle strengthening of the present invention (by using a carbon dioxide external administration device as the carbon dioxide supplying means). Thereafter, the muscle strength of the quadriceps femoris and the muscle strength of the hamstrings were measured by using MyoretRZ-450.
On day 4 and later after the experiment was started, neither absorption of carbon dioxide nor stretching exercise on isometric torque of the quadriceps femoris was carried out. On day 7 after the experiment was started, the muscle strengths of the quadriceps femoris and the hamstrings were measured by using MyoretRZ-450.

Series [2] relates to muscle strengths of the quadriceps femoris and the hamstrings. The experiment in a line: Promotion of muscle strengthening with no exercise load applied, three months. The series is classed as in vivo, human. To be noted: month 3, no exercise load, 80% CO2 ten minutes at least once a week. The source says:
Thirteen subjects (all males, aged from 27 to 43) participated in the experiment. In each subjects, the absorption aid 4 of carbon dioxide described in Example 5 in Patent Document 7 (Japanese Patent Unexamined Publication No. 2004-517345) was given to one determined leg (hereinafter, referred to as a “treated leg”). The treated leg was covered with an 80 cm-long polypropylene bag type sealing enclosure member equipped with a check valve. Then, carbon dioxide was filled in the member from a carbon dioxide gas cylinder and stood still for ten minutes. The carbon dioxide concentration was set to 80% (800,000 ppm). The treatment was carried out at least once a week for three months. No treatment was given to the other leg (hereinafter, referred to as a “non-treated leg”). Before and three months after the experiment was started, the muscle strengths of the treated leg and the non-treated leg were measured (the muscle strengths of the quadriceps femoris and the hamstrings were measured by using MyoretRZ-450).

The test system of the next series is rat lower thigh muscle. The experiment in a line: Increase in amount of rat muscle with no exercise load applied, three months. The format is in vivo, Wister rats. The text has this: Nine male Wister rats (5-week old at the time when the experiment was started) were used.
In the CO2 group, the hair was removed from the right and left lower thighs of six rats under anesthesia. Then, the absorption aid 4 of carbon dioxide described in Example 5 in Patent Document 7 (Japanese Patent Unexamined Publication
No. 2004-517345) was applied to only the right lower thigh (hereinafter, referred to as a “treated limb”). Next, the rat lower body was covered with a polyethylene bag type sealing enclosure member provided with a hole through which the left hind limb comes out so that only the right hind limb absorbs carbon dioxide. Then, carbon dioxide was filled in the sealing enclosure member by using a carbon dioxide gas cylinder so as to inflate the sealing enclosure member. In order to always secure a sufficient amount of carbon dioxide in the sealing enclosure member, carbon dioxide was added at any time, so that the sealing enclosure member was filled with carbon dioxide for ten minutes. The carbon dioxide concentration inside the sealing enclosure member was set to 100%. […]
Three months later, the rat body weights were measured and the muscle was collected from the right and left lower thighs. The muscle wet weight of the collected muscle was measured, followed by detecting growth a acceleration indicating proteins of muscle fibers, MyoD and Myogenin (see Atsuko HARA et al., “Expression of myosin heavy chain isoforms, myogenin and MyoD in the course of regeneration of skeletal muscle,” Journal of Health Sciences of Hiroshima University, Vol. 2 (1): 12-18, 2002), and IGF-IR [see Junichi SUZUKI et al., “Effect of endurance training with L-arginine supplementation on expression of IGF-1 receptor in rat skeletal muscles” Research for Winter Sports, (the Proceedings of Research and Education Center for Winter Sports, Hokkaido University of Education), Vol. 8 (1) 1-7, 2005], by Western blotting. The resultant bands were analyzed on the analysis software (NIH-Image) so as to quantify each growth acceleration indicating protein. […]

The mark [3] stands for this setting: day 7, non-athletes, pre-ex defined as 100%.
The mark [4] stands for this setting: 100% CO2 ten minutes twice a week.

Turning to `O=C=O` [carbon dioxide], the “muscle strengthening rate (grip strength) compared with only pressurizing” value with grip strength (day 3 after kaatsu training, treated arm versus non-treated arm) is given as “two-times”. Besides, the “muscle pain and fatigue accompanying kaatsu training” value with grip strength (left hand with carbon dioxide absorption versus only pressurizing and exercise) is “reduced”. In addition, the “blood pressure and heart rate of the subjects during the absorption of carbon dioxide” value in series [1] (after exercise load, 80% CO2, ten minutes, treated leg) is listed as “did not change”. The “muscle strengthening of the quadriceps femoris in the treated leg” value in series [1] (day 7, all subjects, pre-ex defined as 100%, CO2 absorption stopped from day 4) was determined as 20%. Further, the “muscle strengthening of the hamstrings (no exercise load) in the treated leg” value in series [1] (day 7, all subjects, pre-ex defined as 100%, significant at P=5%) was “about 15%”. Further, in series [1] (setting [3]), the “muscle strengthening of the hamstrings (no exercise load) in the treated leg, non-athletes” value is recorded as “about 20%” and the “muscle strengthening of the quadriceps femoris in the treated leg, non-athletes” value is “about 30%”. The “muscle strengthening of the quadriceps femoris, treated leg compared with non-treated leg” value in series [1] (days 2 to 4 of the experiment, CO2 ten minutes once a day) is on record as “promoted”. Also, the “recovery of the muscle strength of the quadriceps femoris, treated leg versus non-treated leg” value in series [1] (post-CO2, day of exercise load, 80% CO2, ten minutes) is on record as “faster”. In series [2] (P=1%), the “muscle strengthening of the quadriceps femoris in the treated leg as compared with the non-treated leg” value is listed as “about 15%”. Moreover, the “muscle strengthening of the hamstrings in the treated leg as compared with the non-treated leg” value in series [2] (P=5%) was “about 15%”. Further, in the series with rat lower thigh muscle (setting [4]), the “muscle wet weight per body weight, CO2 group as compared with CONTROL group” value was “increase” and the “muscle wet weight, treated leg as compared with non-treated leg in the CO2 group” value is “remarkable increase”. Also, the “amount of growth acceleration indicating protein (MyoD, Myogenin, IGF-IR) extracted from the muscle, CO2 group versus CONTROL group” value with rat lower thigh muscle (Western blotting) was “increased”.

The values are drawn from patent publication US20120093946A1, “USE OF CARBON DIOXIDE SUPPLYING MEANS FOR MUSCLE STRENGTHENING AND METHOD OF INCREASING CATTLE MEAT THEREBY” (priority 2007, published 2012).
